Measurements reported in paper PMC11945486, “TAS1R2/TAS1R3 Single-Nucleotide Polymorphisms Affect Sweet Taste Receptor Activation by Sweeteners: The SWEET Project” (Nutrients, 2025).
No end group written: not given here.

T1: human TAS1R2-A574T/TAS1R3-WT (Homo sapiens, UniProt Q7RTX0+Q8TE23, A574T)
T1 construct: expressed in transfected cells; host or cells: HEK293T-Gα16gust44
T1 sequence (Q8TE23 20-839 A574T): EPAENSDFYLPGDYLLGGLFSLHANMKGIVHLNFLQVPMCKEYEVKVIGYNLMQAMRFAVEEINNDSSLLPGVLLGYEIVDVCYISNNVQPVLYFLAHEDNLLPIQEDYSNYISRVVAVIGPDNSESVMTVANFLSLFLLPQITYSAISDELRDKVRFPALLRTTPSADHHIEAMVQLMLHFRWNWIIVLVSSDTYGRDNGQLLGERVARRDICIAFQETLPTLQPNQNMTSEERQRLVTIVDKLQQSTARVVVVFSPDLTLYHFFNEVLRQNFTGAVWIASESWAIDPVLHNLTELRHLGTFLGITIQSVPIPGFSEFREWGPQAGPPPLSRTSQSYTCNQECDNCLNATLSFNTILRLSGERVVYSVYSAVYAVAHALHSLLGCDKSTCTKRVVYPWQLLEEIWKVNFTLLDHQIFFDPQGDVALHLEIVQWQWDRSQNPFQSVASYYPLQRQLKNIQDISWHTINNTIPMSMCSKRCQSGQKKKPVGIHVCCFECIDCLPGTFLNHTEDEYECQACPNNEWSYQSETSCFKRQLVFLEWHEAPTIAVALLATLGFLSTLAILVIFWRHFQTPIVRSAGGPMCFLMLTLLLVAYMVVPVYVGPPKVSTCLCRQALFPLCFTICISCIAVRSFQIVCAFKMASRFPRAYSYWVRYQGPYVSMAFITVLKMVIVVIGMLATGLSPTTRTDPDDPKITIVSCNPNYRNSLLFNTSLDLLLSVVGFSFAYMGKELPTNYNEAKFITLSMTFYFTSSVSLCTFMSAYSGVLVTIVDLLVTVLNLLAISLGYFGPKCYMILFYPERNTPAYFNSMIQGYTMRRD
T1 sequence (Q7RTX0 21-852): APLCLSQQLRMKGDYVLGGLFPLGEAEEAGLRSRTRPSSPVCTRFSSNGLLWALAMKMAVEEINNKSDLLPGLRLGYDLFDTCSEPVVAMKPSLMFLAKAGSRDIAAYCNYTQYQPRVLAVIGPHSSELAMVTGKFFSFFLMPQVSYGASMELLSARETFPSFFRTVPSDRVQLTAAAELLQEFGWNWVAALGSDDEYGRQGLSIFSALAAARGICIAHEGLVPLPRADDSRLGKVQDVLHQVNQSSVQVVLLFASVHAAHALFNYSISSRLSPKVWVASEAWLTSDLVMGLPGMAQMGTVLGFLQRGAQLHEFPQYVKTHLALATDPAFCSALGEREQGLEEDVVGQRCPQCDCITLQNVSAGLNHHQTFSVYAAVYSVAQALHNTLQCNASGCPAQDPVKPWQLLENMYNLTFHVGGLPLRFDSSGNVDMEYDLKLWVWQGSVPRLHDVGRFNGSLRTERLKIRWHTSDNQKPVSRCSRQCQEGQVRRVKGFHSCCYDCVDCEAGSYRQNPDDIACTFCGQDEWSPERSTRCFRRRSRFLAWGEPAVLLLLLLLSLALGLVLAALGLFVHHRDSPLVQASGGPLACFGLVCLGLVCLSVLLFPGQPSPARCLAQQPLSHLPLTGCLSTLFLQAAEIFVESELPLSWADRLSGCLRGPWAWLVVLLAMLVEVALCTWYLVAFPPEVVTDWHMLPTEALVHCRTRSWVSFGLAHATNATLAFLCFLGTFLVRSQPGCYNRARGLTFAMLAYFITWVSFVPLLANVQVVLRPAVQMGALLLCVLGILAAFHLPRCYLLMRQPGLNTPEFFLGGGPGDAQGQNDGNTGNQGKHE

B1: thaumatin (protein)
chain: ATFEIVNRCSYTVWAAASKGDAALDAGGRQLNSGESWTINVEPGTKGGKIWARTDCYFDDSGSGICKTGDCGGLLRCKRFGRPPTTLAEFSLNQYGKDYIDISNIKGFNVPMDFSPTTRGCRGVRCAADIVGQCPAKLKAPGGGCNDACTVFQTSEYCCTTGKCGPTEYSRFFKRLCPDAFSYVLDKPTTVTCPGSSNYRVTFCPTA
modifications: Eight disulfides
notes: sweet-tasting plant protein, E957

Target: T1, human TAS1R2-A574T/TAS1R3-WT
Assay: Calcium mobilisation assay, TAS1R2 variant A574T with TAS1R3-WT
Format: cell-based
Details: for Max ΔF/F0: maximal signal amplitude
Excerpt: The coding sequences for TAS1R2 and TAS1R3 were commercially synthesised, and the human codon was optimised for expression in human cells. The coding sequences of human TAS1R2 and TAS1R3 were subcloned and inserted into the mammalian expression vectors pcDNA6/myc-HisA and pcDNA4/myc-HisA (Invitrogen; Thermo Fisher Scientific; Illkirch, France) between the EcoRI and NotI restriction sites, generating the plasmids pcDNA6-TAS1R2 and pcDNA4-TAS1R3, respectively. To increase protein expression in mammalian cells, an upstream start codon was used, which was a sequence called MAX, corresponding to the QBI SP163 element also described in pcDNA4-HisMax (Invitrogen; Thermo Fisher Scientific; Illkirch, France). To measure the expression level of the receptor by immunohistochemistry, we used the FLAG sequence ([…]) in the C-terminal position, which encodes the FLAG tag epitope. SNP variants of TAS1R2 and TAS1R3 were constructed based on […], respectively, using site-directed mutagenesis (Genewiz; Leipzig, Germany).
The HEK293T cells were kindly provided by Jay P. Slack (Givaudan Flavors Corporation; Cincinnati, OH, USA). HEK293T cells stably transfected with Gα16gust44 [43, 67] were seeded in poly-D-lysine-coated clear-bottom black 96-well plates (0.35 × 10^5 cells/well) in high-glucose DMEM supplemented with 2 mM GlutaMAX, 10% dialysed foetal bovine serum with penicillin/streptomycin and G418 (400 μg/mL) at 37 °C and 6.3% CO2 in a humidified atmosphere as previously reported. […] As a negative control, HEK293T cells were mock-transfected with the empty expression vector. After a further 24 h of incubation, the HEK293T cells were washed with C1 buffer (130 mM NaCl, 5 mM KCl, 10 mM HEPES pH 7.4 and 2 mM CaCl2). The 96-well plates containing the cells were then stimulated with sweet-tasting compounds. […] Different concentration ranges were tested depending on the sweet compound injected. The Ca^2+ changes were expressed as fractional changes in fluorescent light intensity: ΔF/F = (F − F0)/F0, where F was the fluorescent light intensity at each point, and F0 was the value of emitted fluorescent light prior to stimulus application. To calculate dose–response relationships, the changes in fluorescence upon stimulus application were averaged, mock-subtracted and baseline-corrected. The dose–response data obtained were adjusted using a 4-parameter logistic equation. The half-maximal effective concentrations (EC50 values) and maximal signal amplitudes were calculated using SigmaPlot software (version 15.0) (Systat Software; San Jose, CA, USA).
For in vitro calcium mobilisation assay performed on hTAS1R2-SNPs, hTAS1R3-SNPs and mTAS1R3-I60T, 6 to 7 concentrations were tested for each sweet compound, plus buffer alone. All concentration–receptor combinations were measured in duplicate, and each experiment was repeated at least 4 times (8 wells/concentration). Results were expressed for each concentration as ΔF/F mean ± SEM and represented as dose–response curves.

Molecule	EC50 [µM]	R1 = Variant EC50/WT EC50	Max ΔF/F0
CC1=CC(=O)NS(=O)(=O)O1 [Acesulfame K, acesulfame K]	658 ± 65	0.9	0.34 ± 0.02
O=S(=O)(O)NC1CCCCC1 [Cyclamate, cyclamate]	1780 ± 49	–	–
C[C@H](CC[C@@H](O[C@@H]1O[C@H](CO[C@@H]2O[C@H](CO)[C@@H](O)[C@H](O)[C@H]2O)[C@@H](O)[C@H](O)[C@H]1O[C@@H]1O[C@H](CO)[C@@H](O)[C@H](O)[C@H]1O)C(C)(C)O)[C@H]1CC[C@@]2(C)[C@@H]3CC=C4[C@@H](CC[C@H](O[C@@H]5O[C@H](CO[C@@H]6O[C@H](CO)[C@@H](O)[C@H](O)[C@H]6O)[C@@H](O)[C@H](O)[C@H]5O)C4(C)C)[C@]3(C)[C@H](O)C[C@]12C [Mogroside V, mogroside V]	16.7 ± 3.1	1.0	1.25 ± 0.08
COc1ccc(CCC(=O)c2c(O)cc(O[C@@H]3O[C@H](CO)[C@@H](O)[C@H](O)[C@H]3O[C@@H]3O[C@@H](C)[C@H](O)[C@@H](O)[C@H]3O)cc2O)cc1O [NHDC, neohesperidin dihydrochalcone]	73.4 ± 8.4	1.0	0.81 ± 0.03
COC(=O)[C@H](Cc1ccccc1)NC(=O)[C@H](CC(=O)O)NCCC(C)(C)C [Neotame]	0.73 ± 0.03	0.9	0.60 ± 0.01
C=C(C)[C@@H]1CC=C(/C=N/O)CC1 [Perillartine, perillartine]	19.2 ± 0.9	1.1	1.39 ± 0.02
C=C1C[C@@]23CC[C@H]4[C@@](C)(CCC[C@@]4(C)C(=O)O[C@@H]4O[C@H](CO)[C@@H](O)[C@H](O[C@@H]5O[C@H](CO)[C@@H](O)[C@H](O)[C@H]5O)[C@H]4O[C@@H]4O[C@H](CO)[C@@H](O)[C@H](O)[C@H]4O)[C@@H]2CC[C@]1(O[C@@H]1O[C@H](CO)[C@@H](O)[C@H](O[C@@H]2O[C@H](CO)[C@@H](O)[C@H](O)[C@H]2O)[C@H]1O[C@@H]1O[C@H](CO)[C@@H](O)[C@H](O)[C@H]1O)C3 [Rebaudioside M, rebaudioside M]	16.3 ± 0.5	1.0	1.08 ± 0.01
OC[C@H]1O[C@H](O[C@]2(CCl)O[C@H](CCl)[C@@H](O)[C@@H]2O)[C@H](O)[C@@H](O)[C@H]1Cl [Sucralose]	81 ± 2	0.9	0.63 ± 0.01
brazzein (QDKCKKVYENYPVSKCQLANQCNYDCKLDKHARSGECFYDEKRNLQCICDYCEY; ends and bridges not checked; cysteine pairing not given here; UniProt P56552 1-54, looked up) [sweet-tasting protein obtained by recombinant production using the yeast Pichia pastoris]	–	1.2	1.14 ± 0.01
thaumatin	–	1.9	1.37 ± 0.02
B1	14.1 ± 0.3	–	–
